Data as given in the supplement of paper PMC10307832.

Experiments:
Assay in all cases: relative viability (nuclei count vs DMSO), 5 days (fraction); higher = more cells survive
[1] = compound: CCC1=CN=CN=C1N2CCN(CC2)CC3=NC4=C(N3)C=C(C=C4)C(F)(F)F + CS(=O)(=O)N1CCN(Cc2cc3nc(-c4cccc5[nH]ncc45)nc(N4CCOCC4)c3s2)CC1 [Pictilisib] (partner 1 µM)
In short: (§1)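 Lung cancer cell lines were seeded in 1536-well plates and dosed by pin tool the next day, with either a single drug or a fixed anchor-drug dose combined with five library-drug doses (not always all listed) spaced in √10 steps. Five days later, one step fixed the cells and stained their nuclei (final 0.05% Triton X-100, 1% formaldehyde, 1 ug/ml Hoechst), and nuclei were counted on 4× images. Relative viability is the nuclei count in treated wells divided by the count in vehicle wells, and each value is the median of duplicate plates.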

[2] = compound: CCC1=CN=CN=C1N2CCN(CC2)CC3=NC4=C(N3)C=C(C=C4)C(F)(F)F + CC(=O)c1c(C)c2cnc(Nc3ccc(N4CCNCC4)cn3)nc2n(C2CCCC2)c1=O [Palbociclib] (partner 0.5 µM)
In short: as §1

Mirin + Linsitinib = compound: N=C1NC(=O)/C(=C/c2ccc(O)cc2)S1 [Mirin] + C[C@]1(O)C[C@@H](c2nc(-c3ccc4ccc(-c5ccccc5)nc4c3)c3c(N)nccn32)C1 [Linsitinib] (partner 1 µM)
In short: as §1

Mirin + Navitoclax = compound: N=C1NC(=O)/C(=C/c2ccc(O)cc2)S1 [Mirin] + CC1(C)CCC(c2ccc(Cl)cc2)=C(CN2CCN(c3ccc(C(=O)NS(=O)(=O)c4ccc(N[C@H](CCN5CCOCC5)CSc5ccccc5)c(S(=O)(=O)C(F)(F)F)c4)cc3)CC2)C1 [Navitoclax] (partner 0.5 µM)
In short: as §1

Cell Line: NCI-H1355
- relative viability ([1]; first compound 0.04 µM): 0.541
- relative viability ([1]; first compound 0.1265 µM): 0.414
- relative viability ([1]; first compound 0.4 µM): 0.361
- relative viability ([1]; first compound 1.265 µM): 0.293
- relative viability ([1]; first compound 4 µM): 0.453
- relative viability ([2]; first compound 0.04 µM): 0.412
- relative viability ([2]; first compound 0.1265 µM): 0.387
- relative viability ([2]; first compound 0.4 µM): 0.407
- relative viability ([2]; first compound 1.265 µM): 0.373
- relative viability ([2]; first compound 4 µM): 0.368
- relative viability (Mirin + Linsitinib; first compound 0.25 µM): 0.799
- relative viability (Mirin + Linsitinib; first compound 0.7906 µM): 0.852
- relative viability (Mirin + Linsitinib; first compound 2.5 µM): 0.975
- relative viability (Mirin + Linsitinib; first compound 7.906 µM): 0.861
- relative viability (Mirin + Linsitinib; first compound 25 µM): 0.747
- relative viability (Mirin + Navitoclax; first compound 0.25 µM): 1
- relative viability (Mirin + Navitoclax; first compound 0.7906 µM): 0.989
- relative viability (Mirin + Navitoclax; first compound 2.5 µM): 1.07
- relative viability (Mirin + Navitoclax; first compound 7.906 µM): 0.897
- relative viability (Mirin + Navitoclax; first compound 25 µM): 0.979

Cell Line: EKVX
- relative viability ([1]; first compound 0.04 µM): 0.395
- relative viability ([1]; first compound 0.1265 µM): 0.388
- relative viability ([1]; first compound 0.4 µM): 0.373
- relative viability ([1]; first compound 1.265 µM): 0.307
- relative viability ([1]; first compound 4 µM): 0.444
- relative viability ([2]; first compound 0.04 µM): 0.405
- relative viability ([2]; first compound 0.1265 µM): 0.387
- relative viability ([2]; first compound 0.4 µM): 0.325
- relative viability ([2]; first compound 1.265 µM): 0.337
- relative viability ([2]; first compound 4 µM): 0.377
- relative viability (Mirin + Linsitinib; first compound 0.25 µM): 1.11
- relative viability (Mirin + Linsitinib; first compound 0.7906 µM): 0.959
- relative viability (Mirin + Linsitinib; first compound 2.5 µM): 1.03
- relative viability (Mirin + Linsitinib; first compound 7.906 µM): 0.933
- relative viability (Mirin + Linsitinib; first compound 25 µM): 1
- relative viability (Mirin + Navitoclax; first compound 0.25 µM): 1.01
- relative viability (Mirin + Navitoclax; first compound 0.7906 µM): 0.932
- relative viability (Mirin + Navitoclax; first compound 2.5 µM): 1.11
- relative viability (Mirin + Navitoclax; first compound 7.906 µM): 0.875
- relative viability (Mirin + Navitoclax; first compound 25 µM): 0.968

Cell Line: NCI-H460
- relative viability ([1]; first compound 0.04 µM): 0.41
- relative viability ([1]; first compound 0.1265 µM): 0.291
- relative viability ([1]; first compound 0.4 µM): 0.36
- relative viability ([1]; first compound 1.265 µM): 0.224
- relative viability ([1]; first compound 4 µM): 0.395
- relative viability ([2]; first compound 0.04 µM): 0.145
- relative viability ([2]; first compound 0.1265 µM): 0.199
- relative viability ([2]; first compound 0.4 µM): 0.174
- relative viability ([2]; first compound 1.265 µM): 0.152
- relative viability ([2]; first compound 4 µM): 0.166
- relative viability (Mirin + Linsitinib; first compound 0.25 µM): 0.809
- relative viability (Mirin + Linsitinib; first compound 0.7906 µM): 0.759
- relative viability (Mirin + Linsitinib; first compound 2.5 µM): 0.764
- relative viability (Mirin + Linsitinib; first compound 7.906 µM): 0.649
- relative viability (Mirin + Linsitinib; first compound 25 µM): 0.474
- relative viability (Mirin + Navitoclax; first compound 0.25 µM): 1.18
- relative viability (Mirin + Navitoclax; first compound 0.7906 µM): 1.27
- relative viability (Mirin + Navitoclax; first compound 2.5 µM): 1.19
- relative viability (Mirin + Navitoclax; first compound 7.906 µM): 1.06
- relative viability (Mirin + Navitoclax; first compound 25 µM): 0.913

Cell Line: NCI-H1975
- relative viability ([1]; first compound 0.04 µM): 0.311
- relative viability ([1]; first compound 0.1265 µM): 0.307
- relative viability ([1]; first compound 0.4 µM): 0.268
- relative viability ([1]; first compound 1.265 µM): 0.287
- relative viability ([1]; first compound 4 µM): 0.288
- relative viability ([2]; first compound 0.04 µM): 0.62
- relative viability ([2]; first compound 0.1265 µM): 0.479
- relative viability ([2]; first compound 0.4 µM): 0.568
- relative viability ([2]; first compound 1.265 µM): 0.461
- relative viability ([2]; first compound 4 µM): 0.577
- relative viability (Mirin + Linsitinib; first compound 0.25 µM): 0.925
- relative viability (Mirin + Linsitinib; first compound 0.7906 µM): 0.911
- relative viability (Mirin + Linsitinib; first compound 2.5 µM): 1.07
- relative viability (Mirin + Linsitinib; first compound 7.906 µM): 0.989
- relative viability (Mirin + Linsitinib; first compound 25 µM): 1.04
- relative viability (Mirin + Navitoclax; first compound 0.25 µM): 1.05
- relative viability (Mirin + Navitoclax; first compound 0.7906 µM): 1.07
- relative viability (Mirin + Navitoclax; first compound 2.5 µM): 1.11
- relative viability (Mirin + Navitoclax; first compound 7.906 µM): 1.14
- relative viability (Mirin + Navitoclax; first compound 25 µM): 0.994

Cell Line: HCC-78
- relative viability ([1]; first compound 0.04 µM): 0.143
- relative viability ([1]; first compound 0.1265 µM): 0.299
- relative viability ([1]; first compound 0.4 µM): 0.203
- relative viability ([1]; first compound 1.265 µM): 0.206
- relative viability ([1]; first compound 4 µM): 0.178
- relative viability ([2]; first compound 0.04 µM): 0.447
- relative viability ([2]; first compound 0.1265 µM): 0.461
- relative viability ([2]; first compound 0.4 µM): 0.477
- relative viability ([2]; first compound 1.265 µM): 0.451
- relative viability ([2]; first compound 4 µM): 0.468
- relative viability (Mirin + Linsitinib; first compound 0.25 µM): 0.537
- relative viability (Mirin + Linsitinib; first compound 0.7906 µM): 0.585
- relative viability (Mirin + Linsitinib; first compound 2.5 µM): 0.519
- relative viability (Mirin + Linsitinib; first compound 7.906 µM): 0.445
- relative viability (Mirin + Linsitinib; first compound 25 µM): 0.475
- relative viability (Mirin + Navitoclax; first compound 0.25 µM): 0.758
- relative viability (Mirin + Navitoclax; first compound 0.7906 µM): 0.712
- relative viability (Mirin + Navitoclax; first compound 2.5 µM): 0.866
- relative viability (Mirin + Navitoclax; first compound 7.906 µM): 0.847
- relative viability (Mirin + Navitoclax; first compound 25 µM): 0.674

Cell Line: NCI-H2085
- relative viability ([1]; first compound 0.04 µM): 0.468
- relative viability ([1]; first compound 0.1265 µM): 0.426
- relative viability ([1]; first compound 0.4 µM): 0.412
- relative viability ([1]; first compound 1.265 µM): 0.296
- relative viability ([1]; first compound 4 µM): 0.429
- relative viability ([2]; first compound 0.04 µM): 0.371
- relative viability ([2]; first compound 0.1265 µM): 0.398
- relative viability ([2]; first compound 0.4 µM): 0.473
- relative viability ([2]; first compound 1.265 µM): 0.488
- relative viability ([2]; first compound 4 µM): 0.442
- relative viability (Mirin + Linsitinib; first compound 0.25 µM): 0.943
- relative viability (Mirin + Linsitinib; first compound 0.7906 µM): 1.01
- relative viability (Mirin + Linsitinib; first compound 2.5 µM): 0.898
- relative viability (Mirin + Linsitinib; first compound 7.906 µM): 0.819
- relative viability (Mirin + Linsitinib; first compound 25 µM): 0.882
- relative viability (Mirin + Navitoclax; first compound 0.25 µM): 0.978
- relative viability (Mirin + Navitoclax; first compound 0.7906 µM): 1.17
- relative viability (Mirin + Navitoclax; first compound 2.5 µM): 1.25
- relative viability (Mirin + Navitoclax; first compound 7.906 µM): 1.12
- relative viability (Mirin + Navitoclax; first compound 25 µM): 1.09

Cell Line: H3255
- relative viability ([1]; first compound 0.04 µM): 0.5
- relative viability ([1]; first compound 0.1265 µM): 0.507
- relative viability ([1]; first compound 0.4 µM): 0.446
- relative viability ([1]; first compound 1.265 µM): 0.423
- relative viability ([1]; first compound 4 µM): 0.455
- relative viability ([2]; first compound 0.04 µM): 0.313
- relative viability ([2]; first compound 0.1265 µM): 0.308
- relative viability ([2]; first compound 0.4 µM): 0.325
- relative viability ([2]; first compound 1.265 µM): 0.292
- relative viability ([2]; first compound 4 µM): 0.343
- relative viability (Mirin + Linsitinib; first compound 0.25 µM): 0.9
- relative viability (Mirin + Linsitinib; first compound 0.7906 µM): 0.886
- relative viability (Mirin + Linsitinib; first compound 2.5 µM): 0.972
- relative viability (Mirin + Linsitinib; first compound 7.906 µM): 0.954
- relative viability (Mirin + Linsitinib; first compound 25 µM): 0.97
- relative viability (Mirin + Navitoclax; first compound 0.25 µM): 0.499
- relative viability (Mirin + Navitoclax; first compound 0.7906 µM): 0.59
- relative viability (Mirin + Navitoclax; first compound 2.5 µM): 0.628
- relative viability (Mirin + Navitoclax; first compound 7.906 µM): 0.513
- relative viability (Mirin + Navitoclax; first compound 25 µM): 0.47
